Values of other authors in patent US20140187513A1, “METHOD OF IMPROVING SKILLS WITH A COMPOSITION COMPRISING NON-DIGESTIBLE SACCHARIDE” (priority 2007, published 2014).

Conditions: oral, autistic children, pilot study

Q: Which “cognitive effect following vancomycin treatment” value does the source give for `CN[C@H](CC(C)C)C(=O)N[C@H]1C(=O)N[C@@H](CC(N)=O)C(=O)N[C@H]2C(=O)N[C@H]3C(=O)N[C@H](C(=O)N[C@H](C(=O)O)c4cc(O)cc(O)c4-c4cc3ccc4O)[C@H](O)c3ccc(c(Cl)c3)Oc3cc2cc(c3O[C@@H]2O[C@H](CO)[C@@H](O)[C@H](O)[C@H]2O[C@H]2C[C@](C)(N)[C@H](O)[C@H](C)O2)Oc2ccc(cc2Cl)[C@H]1O` [vancomycin] here?
A: significant cognitive improvement
